Source: patent publication US12281057B2 (VERTEX PHARMACEUTICALS INCORPORATED, priority 2017, dated 2025)
pIC50: −log10 of the molar value.

target: truncated form of human NaV 1.8 with full channel activity (Homo sapiens, UniProt Q9Y5Y9); assay: E-VIPR Assay Method A for detecting and measuring Nav inhibition (HEK cells, membrane potential FRET dyes, electrical stimulation); format: cell-based; settings: HEK cells expressing human NaV 1.8, HS (human serum) in compound loading buffer, 11 point dose response, top dose 3 μM, Table 20A, read-out: Nav 1.8 MedChem Optical Assay EVIPR Assay Method A HS IC50
Sequence (Q9Y5Y9 126-1722 limits assumed): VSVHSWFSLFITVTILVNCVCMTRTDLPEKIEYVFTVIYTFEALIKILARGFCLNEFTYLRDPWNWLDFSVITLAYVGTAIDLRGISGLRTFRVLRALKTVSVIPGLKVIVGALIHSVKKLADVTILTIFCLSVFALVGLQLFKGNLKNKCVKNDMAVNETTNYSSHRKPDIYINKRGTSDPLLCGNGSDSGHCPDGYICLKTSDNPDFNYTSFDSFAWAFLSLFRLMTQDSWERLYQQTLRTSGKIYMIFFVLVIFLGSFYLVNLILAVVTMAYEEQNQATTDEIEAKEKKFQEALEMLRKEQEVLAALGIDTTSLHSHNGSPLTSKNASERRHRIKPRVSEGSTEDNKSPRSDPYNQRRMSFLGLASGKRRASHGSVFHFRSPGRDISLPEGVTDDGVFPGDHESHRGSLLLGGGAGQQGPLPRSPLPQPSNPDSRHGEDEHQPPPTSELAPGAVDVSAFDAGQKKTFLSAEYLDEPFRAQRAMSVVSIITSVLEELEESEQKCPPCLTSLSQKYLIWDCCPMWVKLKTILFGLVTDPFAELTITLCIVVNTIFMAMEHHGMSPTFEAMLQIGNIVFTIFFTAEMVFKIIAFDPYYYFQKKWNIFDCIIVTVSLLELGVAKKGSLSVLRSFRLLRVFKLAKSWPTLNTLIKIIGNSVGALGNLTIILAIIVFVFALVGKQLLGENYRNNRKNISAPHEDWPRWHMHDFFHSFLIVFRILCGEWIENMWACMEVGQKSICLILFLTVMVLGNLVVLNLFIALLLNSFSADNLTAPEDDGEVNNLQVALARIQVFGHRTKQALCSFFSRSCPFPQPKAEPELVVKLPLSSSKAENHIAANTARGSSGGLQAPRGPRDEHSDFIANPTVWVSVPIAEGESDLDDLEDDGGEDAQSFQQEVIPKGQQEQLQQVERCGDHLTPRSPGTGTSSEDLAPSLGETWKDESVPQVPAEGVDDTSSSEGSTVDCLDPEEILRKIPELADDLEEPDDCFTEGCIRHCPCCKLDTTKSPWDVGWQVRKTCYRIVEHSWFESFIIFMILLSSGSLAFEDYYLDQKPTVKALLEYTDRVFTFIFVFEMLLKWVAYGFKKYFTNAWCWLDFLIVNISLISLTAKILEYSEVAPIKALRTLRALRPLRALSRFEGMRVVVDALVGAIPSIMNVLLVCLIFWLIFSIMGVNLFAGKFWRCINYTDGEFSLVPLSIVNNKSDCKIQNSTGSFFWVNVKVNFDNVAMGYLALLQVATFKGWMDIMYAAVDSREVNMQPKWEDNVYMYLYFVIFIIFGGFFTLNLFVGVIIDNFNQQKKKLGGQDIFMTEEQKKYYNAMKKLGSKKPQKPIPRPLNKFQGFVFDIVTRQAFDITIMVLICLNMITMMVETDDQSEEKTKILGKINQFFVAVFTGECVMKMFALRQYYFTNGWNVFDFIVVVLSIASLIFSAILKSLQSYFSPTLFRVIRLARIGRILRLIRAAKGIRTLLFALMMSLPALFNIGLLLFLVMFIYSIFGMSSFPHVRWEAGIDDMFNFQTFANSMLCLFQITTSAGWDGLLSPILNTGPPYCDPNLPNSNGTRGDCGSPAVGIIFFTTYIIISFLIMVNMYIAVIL
Method in brief: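 HEK cells expressing truncated human NaV1.8, loaded with CC2-DMPE/DiSBAC6(3) FRET dyes, incubated 30 min at room temp with compound (0.625% DMSO), then electrically stimulated (1.25 A biphasic, 10 Hz, 10 s). Inhibition from 460/580 nm ratio Rf/Ri, normalised to positive and DMSO controls.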

Row | Structure (SMILES) | pIC50
1 | COc1cc(OC(F)(F)F)ccc1Oc1cc(C2(C)CC2)ncc1C(=O)Nc1ccc(F)c(C(N)=O)c1 [Compound 102, N-(3-Carbamoyl-4-fluoro-phenyl)-4-[2-methoxy-4-(trifluoromethoxy)phenoxy]-6-(1-methylcyclopropyl)pyridine-3-carboxamide] | 7.66
2 | COc1cc(OC(F)(F)F)ccc1Oc1cc(C(C)(C)F)ncc1C(=O)Nc1ccc(F)c(C(N)=O)c1 [Compound 103, N-(3-Carbamoyl-4-fluoro-phenyl)-6-(1-fluoro-1-methyl-ethyl)-4-[2-methoxy-4-(trifluoromethoxy)phenoxy]pyridine-3-carboxamide] | 7.47
3 | COc1cc(OC(F)(F)F)ccc1Oc1cc(C(C)(C)F)ncc1C(=O)Nc1ccnc(C(N)=O)c1 [Compound 104, N-(2-Carbamoyl-4-pyridyl)-6-(1-fluoro-1-methyl-ethyl)-4-[2-methoxy-4-(trifluoromethoxy)phenoxy]pyridine-3-carboxamide] | 7.19
4 | COc1cc(OC(F)(F)F)ccc1Oc1cc(C2(C)CC2)ncc1C(=O)Nc1ccnc(C(N)=O)c1 [Compound 105, N-(2-Carbamoyl-4-pyridyl)-4-[2-methoxy-4-(trifluoromethoxy)phenoxy]-6-(1-methylcyclopropyl)pyridine-3-carboxamide] | 7.36
5 | COc1cc(OC(F)(F)F)ccc1Oc1cc(C2CC2(F)F)ncc1C(=O)Nc1ccnc(C(N)=O)c1 (stereo not shown) [Compound 107, N-(2-Carbamoyl-4-pyridyl)-6-(2,2-difluorocyclopropyl)-4-[2-methoxy-4-(trifluoromethoxy)phenoxy]pyridine-3-carboxamide] | 6.91
6 | COc1cc(OC(F)(F)F)ccc1Oc1cc(C2CC2(F)F)ncc1C(=O)Nc1ccc(F)c(C(N)=O)c1 (stereo not shown) [Compound 108, N-(3-Carbamoyl-4-fluoro-phenyl)-6-(2,2-difluorocyclopropyl)-4-[2-methoxy-4-(trifluoromethoxy)phenoxy]pyridine-3-carboxamide] | 7.30
7 | NC(=O)c1cc(NC(=O)c2c(Oc3ccc(OC(F)(F)F)cc3)ccc(C(F)(F)F)c2F)cc[n+]1[O-] [Compound 110, 4-[[2-Fluoro-6-[4-(trifluoromethoxy)phenoxy]-3-(trifluoromethyl)benzoyl]amino]-1-oxido-pyridin-1-ium-2-carboxamide] | 7.26
8 | [2H]C([2H])([2H])Oc1cc(OC(F)(F)F)ccc1Oc1ccc(C(F)(F)F)c(F)c1C(=O)Nc1cc[n+]([O-])c(C(N)=O)c1 [Compound 115, 4-[[2-Fluoro-6-[2-(trideuteriomethoxy)-4-(trifluoromethoxy)phenoxy]-3-(trifluoromethyl)benzoyl]amino]-1-oxido-pyridin-1-ium-2-carboxamide] | 8.22
9 | COc1cc(OC(F)(F)F)ccc1Oc1cc(C2CC2)c(F)cc1C(=O)Nc1ccnc(C(N)=O)c1 [Compound 116, 4-[[4-Cyclopropyl-5-fluoro-2-[2-methoxy-4-(trifluoromethoxy)phenoxy]benzoyl]amino]pyridine-2-carboxamide] | 6.84
10 | COc1cc(OC(F)(F)F)ccc1Oc1cncc(F)c1C(=O)Nc1ccc(F)c(C(N)=O)c1 [Compound 117, N-(3-Carbamoyl-4-fluoro-phenyl)-3-fluoro-5-[2-methoxy-4-(trifluoromethoxy)phenoxy]pyridine-4-carboxamide] | 6.74
11 | COc1cc(OC(F)(F)F)ccc1Oc1ccc(C(F)(F)F)c(F)c1C(=O)Nc1cc(C(N)=O)c(F)cc1C [Compound 118] | 7.00
12 | COc1cc(OC(F)(F)F)ccc1Oc1cc(C2(C(F)(F)F)CC2)ncc1C(=O)Nc1ccnc(C(N)=O)c1 [Compound 119, N-(2-Carbamoyl-4-pyridyl)-4-[2-methoxy-4-(trifluoromethoxy)phenoxy]-6-[1-(trifluoromethyl)cyclopropyl]pyridine-3-carboxamide] | 7.32
13 | COc1cc(OC(F)(F)F)ccc1Oc1ccc(C(F)(F)F)c(F)c1C(=O)Nc1cc(C(N)=O)ncc1C [Compound 120, 4-[[2-Fluoro-6-[2-methoxy-4-(trifluoromethoxy)phenoxy]-3-(trifluoromethyl)benzoyl]amino]-5-methyl-pyridine-2-carboxamide] | 8.30
14 | COc1cc(OC(F)(F)F)ccc1Oc1cc2c(cc1C(=O)Nc1ccnc(C(N)=O)c1)OC(F)(F)O2 [Compound 121, 4-[[2,2-Difluoro-6-[2-methoxy-4-(trifluoromethoxy)phenoxy]-1,3-benzodioxole-5-carbonyl]amino]pyridine-2-carboxamide] | 6.74
15 | COc1cc(OC(F)(F)F)ccc1Oc1cc2c(cc1C(=O)Nc1ccc(F)c(C(N)=O)c1)OC(F)(F)O2 [Compound 122, N-(3-Carbamoyl-4-fluoro-phenyl)-2,2-difluoro-6-[2-methoxy-4-(trifluoromethoxy)phenoxy]-1,3-benzodioxole-5-carboxamide] | 7.25
16 | COc1cc(OC(F)(F)F)ccc1Oc1ccc(C(F)(F)F)c(F)c1C(=O)Nc1cc(C(N)=O)ncc1F [Compound 123, 5-Fluoro-4-[[2-fluoro-6-[2-methoxy-4-(trifluoromethoxy)phenoxy]-3-(trifluoromethyl)benzoyl]amino]pyridine-2-carboxamide] | 8.30

Row | Structure (SMILES) | pIC50
17 | Cc1cc(F)c(C(N)=O)cc1NC(=O)c1c(Oc2ccc(OC(F)(F)F)cc2)ccc(C(F)(F)F)c1F [Compound 124, N-(5-Carbamoyl-4-fluoro-2-methyl-phenyl)-2-fluoro-6-[4-(trifluoromethoxy)phenoxy]-3-(trifluoromethyl)benzamide] | 6.66
18 | COc1cc(OC(F)(F)F)ccc1Oc1cc(C2CC2)c(C(F)(F)F)cc1C(=O)Nc1ccnc(C(N)=O)c1 [Compound 125, 4-[[4-Cyclopropyl-2-[2-methoxy-4-(trifluoromethoxy)phenoxy]-5-(trifluoromethyl)benzoyl]amino]pyridine-2-carboxamide] | 7.47
19 | COc1cc(Oc2ccc(C(F)(F)F)c(F)c2C(=O)Nc2ccc(F)c(C(N)=O)c2)ccc1OC(F)(F)F [Compound 126, N-(3-Carbamoyl-4-fluoro-phenyl)-2-fluoro-6-[3-methoxy-4-(trifluoromethoxy)phenoxy]-3-(trifluoromethyl)benzamide] | 7.33
20 | [2H]C([2H])([2H])Oc1cc(OC(F)(F)F)ccc1Oc1ccc(C(F)(F)F)c(F)c1C(=O)Nc1ccc(C(N)=O)cc1 [Compound 127, N-(4-carbamoylphenyl)-2-fluoro-6-[2-(trideuteriomethoxy)-4-(trifluoromethoxy)phenoxy]-3-(trifluoromethyl)benzamide] | 8.40
21 | COc1cc(OC(F)(F)F)ccc1Oc1ccc(C(F)(F)F)c(OC)c1C(=O)Nc1cc(C(N)=O)ncc1F [Compound 128, 5-Fluoro-4-(2-methoxy-6-(2-methoxy-4-(trifluoromethoxy)phenoxy)-3-(trifluoromethyl)benzamido)picolinamide] | 7.74
22 | COc1cc(OC(F)(F)F)ccc1Oc1ccc(F)c(Cl)c1C(=O)Nc1cc(C(N)=O)ncc1C [Compound 129, 4-[[2-Chloro-3-fluoro-6-[2-methoxy-4-(trifluoromethoxy)phenoxy]benzoyl]amino]-5-methyl-pyridine-2-carboxamide] | 7.16
23 | COc1cc(OC(F)(F)F)ccc1Oc1cc(Cl)cc(F)c1C(=O)Nc1cc(C(N)=O)ncc1C [Compound 130, 4-[[4-Chloro-2-fluoro-6-[2-methoxy-4-(trifluoromethoxy)phenoxy]benzoyl]amino]-5-methyl-pyridine-2-carboxamide] | 7.57
24 | COc1c(C(F)(F)F)ncc(Oc2ccc(OC(F)(F)F)cc2)c1C(=O)Nc1cc(C(N)=O)ncc1C [Compound 131, N-(2-Carbamoyl-5-methyl-4-pyridyl)-3-methoxy-5-[4-(trifluoromethoxy)phenoxy]-2-(trifluoromethyl)pyridine-4-carboxamide] | 6.77
25 | COc1c(C(F)(F)F)ccc(Oc2ccc(OC(F)(F)F)cc2)c1C(=O)Nc1ccc(C(N)=O)c(F)c1 [Compound 132, N-(4-Carbamoyl-3-fluoro-phenyl)-2-methoxy-6-[4-(trifluoromethoxy)phenoxy]-3-(trifluoromethyl)benzamide] | 6.85
26 | COc1cc(OC(F)(F)F)ccc1Oc1cc(Cl)cc(OC)c1C(=O)Nc1cc(C(N)=O)ncc1C [Compound 133, 4-[[4-Chloro-2-methoxy-6-[2-methoxy-4-(trifluoromethoxy)phenoxy]benzoyl]amino]-5-methyl-pyridine-2-carboxamide] | 6.37
27 | NC(=O)c1cc(NC(=O)c2c(Oc3ccc(OC(F)(F)F)cc3)ccc(C(F)(F)F)c2F)ccc1Cl [Compound 134, N-(3-carbamoyl-4-chloro-phenyl)-2-fluoro-6-[4-(trifluoromethoxy)phenoxy]-3-(trifluoromethyl)benzamide] | 7.17
28 | Cn1nccc1-c1cc(F)ccc1Oc1ccc(C(F)(F)F)c(F)c1C(=O)Nc1ccc(F)c(C(N)=O)c1 [Compound 135, N-(3-Carbamoyl-4-fluoro-phenyl)-2-fluoro-6-[4-fluoro-2-(2-methylpyrazol-3-yl)phenoxy]-3-(trifluoromethyl)benzamide] | 6.85
29 | NC(=O)c1cc(NC(=O)c2c(Oc3ccc(OC(F)F)cc3F)ccc(C(F)(F)F)c2F)ccn1 [Compound 136, 4-[[6-[4-(Difluoromethoxy)-2-fluoro-phenoxy]-2-fluoro-3-(trifluoromethyl)benzoyl]amino]pyridine-2-carboxamide] | 6.85
30 | [2H]C([2H])([2H])Oc1cc(OC(F)(F)F)ccc1Oc1ccc(C(F)(F)F)c(F)c1C(=O)Nc1cc(C(N)=O)ncc1C [Compound 137, 4-[[2-Fluoro-6-[2-(trideuteriomethoxy)-4-(trifluoromethoxy)phenoxy]-3-(trifluoromethyl)benzoyl]amino]-5-methyl-pyridine-2-carboxamide] | 8.30
31 | COc1cc(OC(F)(F)F)ccc1Oc1cncc(OC)c1C(=O)Nc1ccc(F)c(C(N)=O)c1 [Compound 138, N-(3-Carbamoyl-4-fluoro-phenyl)-3-methoxy-5-[2-methoxy-4-(trifluoromethoxy)phenoxy]pyridine-4-carboxamide] | 5.85
